The values below come from patent publication US8889704B2 (Array BioPharma Inc., priority 2011, dated 2014).

Structures can show the parent of a compound that is named as a salt.

Type in all cases: biochemical
In one experiment the target is PIM-1 (Homo sapiens, UniProt P11309). Briefly: Enzyme PIM-1 Assay ([33P]ATP incorporation into PIM2tide, filter plate). Particulars: averaged IC50; 35 μM ATP, 7.5 μM PIM2tide, 0.25 nM PIM-1, 60 min at 22° C. The gist of the method:
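Ten-point, 3-fold dilution series (10 μM top, 2% DMSO final) tested for inhibition of 33P transfer from 35 μM ATP to 7.5 μM PIM2tide by 0.25 nM PIM-1. Reaction 60 min, 22 °C, pH 7.4 MOPS/MgCl2 buffer; phosphocellulose capture, scintillation counting, IC50 where fitted POC equals 50.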

Experiment [1] deals with T1, GST-tagged recombinant full-length human Pim-2 (Homo sapiens, UniProt Q9P1W9).
T1 construct: GST-tagged recombinant full-length human Pim-2; GST
T1 sequence (Q9P1W9 whole entry): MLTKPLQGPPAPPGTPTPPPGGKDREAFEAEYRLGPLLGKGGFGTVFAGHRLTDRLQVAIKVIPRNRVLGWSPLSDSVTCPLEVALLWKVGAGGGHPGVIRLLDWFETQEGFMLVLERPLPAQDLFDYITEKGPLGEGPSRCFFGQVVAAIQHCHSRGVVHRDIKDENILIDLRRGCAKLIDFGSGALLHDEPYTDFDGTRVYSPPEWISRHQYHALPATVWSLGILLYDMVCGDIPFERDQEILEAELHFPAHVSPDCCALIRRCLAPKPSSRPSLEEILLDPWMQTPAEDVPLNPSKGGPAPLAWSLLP
Briefly: PIM-2 Assay (as Example A). As to conditions: averaged IC50; 4 μM ATP, 1.0 μM PIM2tide, 1.5 nM Pim-2. The gist of the method: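 IC50 was derived by 4-parameter logistic fitting of percent-of-control data over a 10-point, 3-fold series (highest 10 μM, 2% DMSO). Reactions held 1.5 nM GST-Pim-2 (full-length, human), 4 μM [γ-33P]ATP and 1.0 μM PIM2tide for 60 min at 22 °C, pH 7.4; 33P-peptide captured on P81 filters.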

The target in another experiment is recombinant rat PIM-3 (Rattus norvegicus, UniProt O70444). Briefly: PIM-3 Assay (as Example A). As to conditions: averaged IC50; 30 μM ATP, 3.75 μM PIM2tide, 0.5 nM PIM-3. The gist of the method: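 33P incorporation from 30 μM [γ-33P]ATP into 3.75 μM PIM2tide by 0.5 nM rat PIM-3, 60 min at 22 °C in pH 7.4 MOPS buffer, read by P81 filter capture and scintillation counting. Compounds tested in 3-fold dilutions up to 10 μM final, 2% DMSO; percent-of-control data fitted by 4-parameter logistic for IC50.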

Sequence of PIM-1 (P11309 whole entry, species assumed): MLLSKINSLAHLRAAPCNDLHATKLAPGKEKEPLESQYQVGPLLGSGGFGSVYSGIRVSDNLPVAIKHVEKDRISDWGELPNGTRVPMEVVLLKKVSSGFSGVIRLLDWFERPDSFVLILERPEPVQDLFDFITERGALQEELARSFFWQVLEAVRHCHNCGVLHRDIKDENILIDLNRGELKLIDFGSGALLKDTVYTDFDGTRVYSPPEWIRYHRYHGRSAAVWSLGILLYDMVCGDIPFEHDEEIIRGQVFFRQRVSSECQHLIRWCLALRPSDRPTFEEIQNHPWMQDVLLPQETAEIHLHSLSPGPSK

One may read the IC50 as the point on the concentration scale where inhibition reaches its midpoint. In the case of `COC[C@@H](C)Oc1cc(F)cc2ccc(-c3nnc4ccc([C@H](N5CC[C@](C)(N)C5)C(F)(F)F)cn34)nc12` [Example 221, (S)-3-methyl-1-((S)-2,2,2-trifluoro-1-(3-(6-fluoro-8-((R)-1-methoxypropan-2-yloxy)quinolin-2-yl)-[1,2,4]triazolo[4,3-a]pyridin-6-yl)ethyl)pyrrolidin-3-amine dihydrochloride], the half-maximal inhibitory concentration (IC50) against PIM-1 came out at 0.41 nM; in experiment [1], 128 nM; on recombinant rat PIM-3, 1 nM.

With `Cn1cc(-c2ccc3ccc(-c4nnc5ccc([C@H](N6CC[C@](C)(N)C6)C(F)(F)F)cn45)nc3c2)cn1` [Example 222, (S)-3-methyl-1-((S)-2,2,2-trifluoro-1-(3-(7-(1-methyl-1H-pyrazol-4-yl)quinolin-2-yl)-[1,2,4]triazolo[4,3-a]pyridin-6-yl)ethyl)pyrrolidin-3-amine dihydrochloride], the IC50 stood at 0.22 nM at PIM-1, 77 nM in experiment [1] and 0.2 nM at recombinant rat PIM-3.

For the compound `C[C@]1(N)CCN([C@@H](c2ccc3nnc(-c4ccc5ccc(C6CC6)cc5n4)n3c2)C(F)(F)F)C1` [Example 223, (S)-1-((S)-1-(3-(7-cyclopropylquinolin-2-yl)-[1,2,4]triazolo[4,3-a]pyridin-6-yl)-2,2,2-trifluoroethyl)-3-methylpyrrolidin-3-amine dihydrochloride], the IC50 against PIM-1 amounted to 0.29 nM; in experiment [1] it was 62 nM; on recombinant rat PIM-3 it was 0.3 nM.

As to `CC(C)(CCO)c1cccc2ccc(-c3nnc4ccc([C@@H](N5CC[C@H](N)C5)C(F)(F)F)cn34)nc12` [Example 224, 3-(2-(6-((R)-1-((S)-3-aminopyrrolidin-1-yl)-2,2,2-trifluoroethyl)-[1,2,4]triazolo[4,3-a]pyridin-3-yl)quinolin-8-yl)-3-methylbutan-1-ol dihydrochloride], the half-inhibitory concentration (IC50) amounted to 0.36 nM at PIM-1, 94 nM in experiment [1] and 0.7 nM on recombinant rat PIM-3.

On to `CC(C)(O)c1cccc2ccc(-c3nnc4ccc([C@@H](N5CC[C@H](N)C5)C(F)(F)F)cn34)nc12` [Example 225, 2-(2-(6-((R)-1-((S)-3-aminopyrrolidin-1-yl)-2,2,2-trifluoroethyl)-[1,2,4]triazolo[4,3-a]pyridin-3-yl)quinolin-8-yl)propan-2-ol], for which the IC50 against PIM-1 came out at 0.27 nM; in experiment [1] it was 139 nM; at recombinant rat PIM-3, 1.1 nM.

Consider `N[C@H]1CCN([C@H](c2ccc3nnc(-c4ccc5cc(F)c(OCC(F)(F)F)cc5n4)n3c2)C(F)(F)F)C1` [Example 226, (S)-1-((R)-2,2,2-trifluoro-1-(3-(6-fluoro-7-(2,2,2-trifluoroethoxy)quinolin-2-yl)-[1,2,4]triazolo[4,3-a]pyridin-6-yl)ethyl)pyrrolidin-3-amine dihydrochloride], for which the concentration for half-maximal inhibition (IC50) amounted to 0.27 nM against PIM-1, 235 nM in experiment [1] and 0.5 nM at recombinant rat PIM-3.

Consider `COCCOc1cccc2ccc(-c3nnc4ccc([C@@H](N5CC[C@H](N)C5)C(F)(F)F)cn34)nc12` [Example 227, (S)-1-((R)-2,2,2-trifluoro-1-(3-(8-(2-methoxyethoxy)quinolin-2-yl)-[1,2,4]triazolo[4,3-a]pyridin-6-yl)ethyl)pyrrolidin-3-amine dihydrochloride], for which the IC50 on PIM-1 is 0.48 nM; in experiment [1], 453 nM; on recombinant rat PIM-3, 2.5 nM.

`N[C@H]1CCN([C@H](c2ccc3nnc(-c4ccc5cc(F)cc(OC(F)F)c5n4)n3c2)C(F)(F)F)C1` [Example 228, (S)-1-((R)-1-(3-(8-(difluoromethoxy)-6-fluoroquinolin-2-yl)-[1,2,4]triazolo[4,3-a]pyridin-6-yl)-2,2,2-trifluoroethyl)pyrrolidin-3-amine dihydrochloride]: the 50% inhibitory concentration (IC50) on PIM-1 came out at 0.79 nM; in experiment [1], 916 nM; at recombinant rat PIM-3 it was 3.8 nM.

For the compound `N[C@H]1CCN([C@H](c2ccc3nnc(-c4ccc5cc(F)cc(OCCCO)c5n4)n3c2)C(F)(F)F)C1` [Example 229, 3-(2-(6-((R)-1-((S)-3-aminopyrrolidin-1-yl)-2,2,2-trifluoroethyl)-[1,2,4]triazolo[4,3-a]pyridin-3-yl)-6-fluoroquinolin-8-yloxy)propan-1-ol dihydrochloride], the IC50 against PIM-1 worked out at 0.13 nM; in experiment [1] it was 55 nM; at recombinant rat PIM-3 it was 0.3 nM.

With `C[C@H](CO)Oc1cccc2ccc(-c3nnc4ccc([C@@H](N5CC[C@H](NCC6CC6)C5)C(F)(F)F)cn34)nc12` [Example 230, dihydrochloride], the half-maximal inhibitory concentration (IC50) at PIM-1 amounted to 0.64 nM; in experiment [1], 211 nM; on recombinant rat PIM-3, 3.2 nM.

Take `CC(C)N[C@H]1CCN([C@H](c2ccc3nnc(-c4ccc5cccc(O[C@H](C)CO)c5n4)n3c2)C(F)(F)F)C1` [Example 231, dihydrochloride]: the IC50 against PIM-1 worked out at 0.88 nM; in experiment [1], 429 nM; at recombinant rat PIM-3, 3.5 nM.

For `N[C@H]1CCN([C@H](c2ccc3nnc(-c4ccc5cc(F)cc(OCC(F)(F)F)c5n4)n3c2)C(F)(F)F)C1` [Example 232, (S)-1-((R)-2,2,2-trifluoro-1-(3-(6-fluoro-8-(2,2,2-trifluoroethoxy)quinolin-2-yl)-[1,2,4]triazolo[4,3-a]pyridin-6-yl)ethyl)pyrrolidin-3-amine dihydrochloride], the results for the IC50 (against PIM-1; in experiment [1]; at recombinant rat PIM-3) were 0.2 nM, 206 nM and 0.8 nM, respectively.

Turning to `COCCCOc1cc(F)cc2ccc(-c3nnc4ccc([C@@H](N5CC[C@H](N)C5)C(F)(F)F)cn34)nc12` [Example 233, (S)-1-((R)-2,2,2-trifluoro-1-(3-(6-fluoro-8-(3-methoxypropoxy)quinolin-2-yl)-[1,2,4]triazolo[4,3-a]pyridin-6-yl)ethyl)pyrrolidin-3-amine dihydrochloride], the IC50 against PIM-1 worked out at 0.28 nM; in experiment [1], 260 nM; at recombinant rat PIM-3, 1.1 nM.

For the compound `CN(C)C(=O)Cc1cccc2ccc(-c3nnc4ccc([C@@H](N5CC[C@H](N)C5)C(F)(F)F)cn34)nc12` [Example 234, 2-(2-(6-((R)-1-((S)-3-aminopyrrolidin-1-yl)-2,2,2-trifluoroethyl)-[1,2,4]triazolo[4,3-a]pyridin-3-yl)quinolin-8-yl)-N,N-dimethylacetamide dihydrochloride], the figures for the IC50 (against PIM-1; in experiment [1]; at recombinant rat PIM-3) were 8.22 nM, over 1000 nM and 33 nM, respectively.

As for `CCNC(=O)Cc1cccc2ccc(-c3nnc4ccc([C@@H](N5CC[C@H](N)C5)C(F)(F)F)cn34)nc12` [Example 235, 2-(2-(6-((R)-1-((S)-3-aminopyrrolidin-1-yl)-2,2,2-trifluoroethyl)-[1,2,4]triazolo[4,3-a]pyridin-3-yl)quinolin-8-yl)-N-ethylacetamide dihydrochloride], the values for the half-maximal inhibitory concentration (IC50) (against PIM-1; in experiment [1]; at recombinant rat PIM-3) were 7.81 nM, over 1000 nM and 33 nM, respectively.

For `CC(C)(O)Cc1cc2nc(-c3nnc4ccc([C@@H](N5CC[C@H](N)C5)C(F)(F)F)cn34)ccc2cc1F` [Example 236, dihydrochloride], the IC50 at PIM-1 was 1.08 nM; in experiment [1], 675 nM; at recombinant rat PIM-3, 2.4 nM.

Take `CC(C)(O)Cc1cc2nc(-c3nnc4ccc([C@H](N5CC[C@H](N)C5)C(F)(F)F)cn34)ccc2cc1F` [Example 237, dihydrochloride]: the 50% inhibitory concentration (IC50) was found to be 2.91 nM on PIM-1, 211 nM in experiment [1] and 1.8 nM on recombinant rat PIM-3.

Take `C[C@H](CO)Oc1cc(F)cc2ccc(-c3nnc4ccc([C@@H](N5CC[C@H](N)C5)C(F)(F)F)cn34)nc12` [Example 238, (R)-2-(2-(6-((R)-1-((S)-3-aminopyrrolidin-1-yl)-2,2,2-trifluoroethyl)-[1,2,4]triazolo[4,3-a]pyridin-3-yl)-6-fluoroquinolin-8-yloxy)propan-1-ol dihydrochloride]: the IC50 on PIM-1 was found to be 0.17 nM; in experiment [1], 166 nM; on recombinant rat PIM-3, 0.6 nM.

On to `N[C@H]1CCN([C@H](c2ccc3nnc(-c4ccc5ccc(OC(F)(F)F)cc5n4)n3c2)C(F)(F)F)C1` [Example 239, (S)-1-((R)-2,2,2-trifluoro-1-(3-(7-(trifluoromethoxy)quinolin-2-yl)-[1,2,4]triazolo[4,3-a]pyridin-6-yl)ethyl)pyrrolidin-3-amine dihydrochloride], for which the IC50 is 1.66 nM against PIM-1, over 1000 nM in experiment [1] and 12 nM on recombinant rat PIM-3.

Turning to `COc1cccc2ccc(-c3nnc4ccc([C@@H](N5CC[C@@](C)(N)C5)C(F)(F)F)cn34)nc12` [Example 240, (R)-3-methyl-1-((R)-2,2,2-trifluoro-1-(3-(8-methoxyquinolin-2-yl)-[1,2,4]triazolo[4,3-a]pyridin-6-yl)ethyl)pyrrolidin-3-amine dihydrochloride], the results for the IC50 (against PIM-1; in experiment [1]; on recombinant rat PIM-3) were 2.37 nM, over 1000 nM and 18 nM, respectively.
